Reference: PMC9961069 (Metabolites, 2023)

Assays:
MCF-7 cells = test: Resazurin viability assay with or without folinic acid, MCF-7; assay type: cell-based, Human; conditions: 72 h; for Rescue of viability impairment by folinic acid: MCF-7, 10 μM ± 300 μg/mL FA; for Relative Viability (%) – Inhibitor + FA Treatment: MCF-7, 10 μM + 300 μg/mL folinic acid; for Relative Viability (%) – Inhibitor Alone: MCF-7, 10 μM, relative to DMSO
Method: (§1) The incorporation and metabolism of resazurin to resorufin was used to monitor cell viability. MDA-MB-468, MCF7, and MDA-MB-231 cells were grown in 96-well plates with a total of 5000 cells per well in a total volume of 180 μL for 24 h, as described above. After 24 h of growth, cells were treated with increasing concentrations of compounds (0.0457–100 μM) for 72 h. A vehicle control was also performed. […] The volume of treatment added to each well was 20 μL. For folinic acid rescue experiments, 5000 cells were treated with 10 μM compound with or without 300 μg/mL folinic acid (Supelco). After 72 h of treatment, resazurin was added to a final concentration of 44 μM, and cells were incubated for an additional 4 h at 37 °C. The fluorescence of resorufin was monitored on a Synergy MX microplate reader (BioTek) using an excitation wavelength of 540 nm and an emission wavelength of 600 nm. Percent viability relative to the DMSO control was determined. Each treatment was performed in triplicate, and each individual experiment was repeated three times (n = 3).

[1] = system: T1, DHFR in MDA-MB-468 lysates; test: Lysate cellular thermal shift assay (CETSA) for DHFR; assay type: binding, Human; conditions: 10 μM, MDA-MB-468 lysate, 45 °C for 3 min; DMSO at 37 °C = 100%
T1 construct: reactions containing 55 μg MDA-MB-468 lysate; endogenous in cells; host or cells: MDA-MB-468
Method: Trypsinized MDA-MB-468 cells were harvested by centrifugation at 200× g for 5 min and washed with PBS supplemented with EDTA-free PIC (Roche) and flash frozen for storage at −80 °C. Cells were lysed by resuspension in 60 μL PBS/PIC per 1 × 10^6 cells. Cells were lysed by three freeze-thaw cycles, where cells were frozen in an ethanol/dry ice bath for 3 min, immediately followed by incubation in a 37 °C water bath for 3 min. The insoluble fraction was removed by centrifugation at 20,000× g for 20 min at 4 °C. The supernatant containing the soluble lysate was removed and saved for subsequent steps.
After incubation, each reaction was transferred to a 1.5 mL tube and centrifuged at 20,000× g for 20 min at 4 °C to remove the insoluble proteins. After centrifugation, 18 μL of supernatant was carefully removed from each reaction, without disturbing any pelleted aggregates, and added to 4.5 μL of 5× SDS-PAGE loading buffer. 11 μL of each reaction was loaded onto a gel in duplicate, and proteins were detected by Western blot (as described below). Resulting band densities were fit to the Boltzmann equation to determine the melting temperature (Tm):(3) y=Bottom+Top−Bottom/1+e^Tm−x/Slope
To rescue the thermal degradation of DHFR by inhibitors, samples containing 10 μM inhibitor, 55 μg lysate, and 1% DMSO in a total volume of 28 μL in DHFR buffer were prepared in PCR tubes and incubated at room temperature for 20 min. Two DMSO-only controls were also prepared. Reactions containing inhibitors were then incubated at 45 °C for 3 min. One DMSO-only control was also heated at 45 °C for 3 min, and the other control was heated at 37 °C for 3 min. The soluble protein fraction was separated from the insoluble proteins by centrifugation, and proteins were separated by SDS-PAGE, as described above, and analyzed via Western blot, as described below. Each experiment was repeated 3 times.
Proteins were electrophoretically separated on a 10% gel, and proteins were transferred to a methanol-activated PVDF membrane using the Trans-Blot Turbo transfer system (Bio-Rad) for 7 min at 1.3 A and 25 V in Trans-Blot Turbo transfer buffer (Bio-Rad). Membranes were blocked with 5% skim milk w/v in TBS-T (20 mM Tris, 150 mM NaCl, 0.05% Tween-20) for 1 h at room temperature. […] The horseradish peroxidase (HRP)-linked anti-mouse IgG secondary antibody (NA931, Cytiva; 1:3000) was added for 1 h at room temperature in 5% skim milk w/v in TBS-T. Signal was detected by adding Immobilon Forte Western HRP Substrate (Millipore), and chemiluminescence was captured on a Sapphire Biomolecular Imager (Azure Biosystems). Band densities were determined using ImageJ (Fiji). The band intensity of DHFR was normalized to the thermostable loading control SOD1 [22].

MDA-MB-231 cells = test: Resazurin viability assay with or without folinic acid, MDA-MB-231; assay type: cell-based, Human; conditions: 72 h; for Relative Viability (%) – Inhibitor + FA Treatment: MDA-MB-231, 10 μM + 300 μg/mL folinic acid; for Relative Viability (%) – Inhibitor Alone: MDA-MB-231, 10 μM, relative to DMSO
Method: as §1

purified human DHFR = target: T2, purified human DHFR (Homo sapiens, UniProt P00374); test: DHFR enzymatic inhibition assay (NADPH absorbance at 340 nm); assay type: biochemical; conditions: 200 nM DHFR, 137.5 μM DHF, 125 μM NADPH; n = 2; read-out: IC50
T2 construct: made in house; host or cells: E. coli BL21 (DE3) T1R pRARE2, pNIC-Bsa4 plasmid
T2 sequence (P00374 1-187): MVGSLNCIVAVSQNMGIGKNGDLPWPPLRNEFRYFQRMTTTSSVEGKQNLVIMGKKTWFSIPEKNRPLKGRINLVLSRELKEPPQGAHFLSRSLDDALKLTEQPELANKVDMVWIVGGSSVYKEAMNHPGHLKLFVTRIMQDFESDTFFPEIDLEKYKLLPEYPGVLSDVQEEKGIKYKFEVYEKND
Method: Working stocks of each inhibitor were created so that the final concentration of DMSO in each reaction was 2% in a final reaction volume of 100 μL. […] Reactions were prepared on ice in 384-well plates. […] Consumption of NADPH by measuring absorbance at 340 nm was used to monitor the progress of the reaction. Readings were taken every 5 min for 1 h at 37 °C using a Synergy MX microplate reader (BioTek).
Percent inhibition relative to the no-inhibitor control was determined using Equation (1). (1) % Inhibition=A340Inhibitor−A340DMSO Control/A340No DHFR−A340DMSO Control×100
Percent inhibition data were then fit to the four-parameter logistic model (Equation (2)) in GraphPad Prism 9.4.1 to determine half-maximal inhibitory concentrations (IC50):(2) y=Bottom+Top−Bottom/1+IC50/x^Hill slope where y represents the percent inhibition, x represents the concentration of inhibitor (μM), the bottom and top represent the bottom and top plateaus, and the Hill slope represents the slope factor. Each experiment contained duplicates of each sample, and each experiment was performed 2 times (n = 2). An ordinary one-way ANOVA was used to test for statistical significance between treatments.

MDA-MB-468 cells = test: Resazurin viability assay with or without folinic acid, MDA-MB-468; assay type: cell-based, Human; conditions: 72 h; for Relative Viability (%) – Inhibitor + FA Treatment: MDA-MB-468, 10 μM + 300 μg/mL folinic acid; for Relative Viability (%) – Inhibitor Alone: MDA-MB-468, 10 μM, relative to DMSO
Method: as §1

Compound | Rescue of viability impairment by folinic acid (MCF-7 cells) | Normalized Band Density (%) of soluble DHFR [1] [%] | Relative Viability (%) – Inhibitor + FA Treatment (MCF-7 cells) [%] | Relative Viability (%) – Inhibitor Alone (MCF-7 cells) [%] | Relative Viability (%) – Inhibitor + FA Treatment (MDA-MB-231 cells) [%] | Relative Viability (%) – Inhibitor Alone (MDA-MB-231 cells) [%] | IC50 (purified human DHFR) [µM] | Relative Viability (%) – Inhibitor + FA Treatment (MDA-MB-468 cells) [%] | Relative Viability (%) – Inhibitor Alone (MDA-MB-468 cells) [%] | Rescue of viability impairment by folinic acid (MDA-MB-231 cells; MDA-MB-231, 10 μM ± 300 μg/mL FA) | Rescue of viability impairment by folinic acid (MDA-MB-468 cells; MDA-MB-468, 10 μM ± 300 μg/mL FA)
CC1(C)N=C(N)N=C(N)N1c1ccc(Cl)c(Cl)c1 [compound 3077] | small yet statistically significant rescue |  |  |  |  |  |  |  |  |  | 
CCc1nc(N)nc(N)c1-c1ccc(Cl)c(Cl)c1 [compound 3062, etoprine] |  | 83.56 ± 52.1 | 100.10 ± 8.2 | 65.16 ± 9.0 | 65.52 ± 15.0 | 52.76 ± 12.1 | 8.6 ± 2.7 | 81.08 ± 13.2 | 65.38 ± 1.3 |  | 
CCS(=O)(=O)O.CN(C)C(=O)c1cccc(COc2ccc(N3C(N)=NC(N)=NC3(C)C)cc2Cl)c1 [compound 139105, triazinate] | not rescued | 86.05 ± 21.9 | 82.83 ± 9.7 | 66.53 ± 8.1 | 65.85 ± 13.7 | 46.35 ± 9.0 |  | 81.38 ± 16.9 | 57.09 ± 8.0 | not rescued | statistically significant rescue
